We go through nine substances from PMC12644675, “The mass spectrometric intact transition epitope mapping method supports protein engineering of foldon trimer variants” (Scientific Reports, 2025).

Data set [1] in a line: Travelling wave ion mobility: drift times and CCS of homo-trimer 5+ ions. Type of data set: physicochemical. The note with it: TWIM, nitrogen; for TWCCSN2 exp. (mean): 5+ trimer ion; for TWCCSN2 exp. (mean) / dt (mean): 50 mM ammonium acetate pH 5.5, c = 0.1 mg/ml, mean of two independent measurements; for dt (mean): centroided 5+ trimer ion signal; for FWHM: drift time peak of 5+ trimer ion, unit assumed. The method, then: Ion mobility measurements were performed using a Synapt G2-S instrument (Waters Corporation, Wilmslow, UK) equipped with a travelling wave ion mobility (TWIM) cell. Nitrogen was the neutral buffer gas for all TWIM experiments. All mass spectra were acquired in positive ion mode applying a mass window from m/z 400 to m/z 8000. Instrument settings were as follows: capillary voltage: 1.2 kV, sample cone voltage: 13 V, source offset: 12 V, source temperature: 40 °C, trap collision energy: 2.0 V, pusher: 1900 V, puller: 1370 V, reflectron grid 1.451 kV, source gas flow: 0.0 ml/min, cone gas flow: 9 l/h, nano flow gas pressure: 0.2 bar, helium cell gas flow: 140 ml/min, IMS gas flow: 50.0 ml/min, trap collision voltage: 2 V, trap gas flow: 5.0 ml/min, IMS wave velocity 1600 m/s, wave height: 30.0 V. Data acquisition, arrival time determinations, and processing were done with the MassLynx software version 4.1 (Waters MS-Technologies, Wilmslow, UK[31]. TWIM calibration was done with bovine serum albumin, myoglobin, cytochrome c, ubiquitin, and insulin using published CCS values (Table S18)[66],[67] and applying the published algorithms for logarithmic fits[66],[68] as well as for linear fits[69].

The subject of a further data set is foldon homo-trimer. Kind of data set: ITEM-FIVE: collision-induced dissociation of foldon homo-trimer 5+ ions in the gas phase (nanoESI-MS). It counts as binding, T4 phage. The note with it: for k#m0g (apparent kinetic constant of trimer dissociation) / TambΔS#m0g / ΔG#m0g (pseudo thermodynamic activation free energy of trimer dissociation) / ΔH#m0g (activation enthalpy of trimer dissociation): gas phase, two measurement series averaged; for k#m0g (apparent kinetic constant of trimer dissociation): CID ΔCV 0-50 V, linear extrapolation to ambient temperature (298 K), dimensionless, sprayed from 50 mM ammonium acetate pH 5.5, 0.1 µg/µl; for TambΔS#m0g: Tamb 298 K; for ΔG#m0g (pseudo thermodynamic activation free energy of trimer dissociation) / ΔH#m0g (activation enthalpy of trimer dissociation): extrapolated to ambient temperature. The source says:
ITEM-FIVE investigations started with electrospraying foldon-containing solutions and by setting the first mass filter (quadrupole) to selecting only foldon trimer ions for transmission into the instrument’s collision cell.
After mass filtering, this was the only remaining ion signal in the mass spectrum because the energy in the collision cell was too low to initiate complex dissociation. […] At 20 V the trimer ion signals were barely visible (Fig. 2C), leaving mass spectra with dominating ion signals of dimers and monomers. Finally, at 40 V, the only ion signals which remained visible in the mass spectra were those of the monomers (Fig. 2D). Independent measurement series of complex dissociations were recorded twice for each foldon variant (Tables S1–S7). […] Plotting the courses of normalized educt ion intensities as functions of ∆CV provided sigmoidal shaped curves with Boltzmann characteristics for all foldons (Fig. 3).
Approximating the tangent lines at the ∆CV50 values of all the Boltzmann curves (R^2 = 0.999 for all foldons; cf. Table S8) and upon transforming ∆CV values to reaction temperatures (applying formula (5) see Supplement) enabled drawing of Arrhenius plots (Fig. S11, applying formulas (1) and (5)) and Ellingham diagrams (Fig. S12, formulas (3), (4) and (5)). The values were calculated from formulas (2), (5) and (6). […] Likewise, the pseudo thermodynamic activation free energy values, followed in all Ellingham diagrams courses with almost parallel lining up of linear courses of all foldons when plotted against (according to formula (4)).
Mass spectra were acquired on a Synapt G2-S instrument (Waters MS-Technologies, Wilmslow, UK). Instrument calibration was performed with a sodium iodide solution with a concentration of 2 mg/ml, dissolved in isopropanol/water (50:50 v/v).
All mass spectra were acquired in positive ion mode applying a mass window from m/z 400 to m/z 8000. NanoESI measurements were performed with the following instrument settings: capillary voltage: 1.0–1.2 kV, sample cone voltage: 13 V source offset: 12 V, source gas flow: 0.0 ml/min, cone gas flow: 9 l/h, helium cell gas flow: 40 ml/min, IMS gas flow: 20.0 ml/min, trap collision voltage for nanoESI-MS analysis: 0–2 V, source temperature: 40 °C; trap gas flow: 2.0 ml/min, reflectron grid 1.449 kV. Data acquisition and processing were done with the MassLynx software version 4.1 (Waters MS-Technologies, Wilmslow, UK)[31].
ITEM-FIVE experiments started with isolating the quintuply charged foldon trimer ion signal as the respective precursor ion[31]. Then the collision cell voltage difference (ΔCV) in the trap cell was increased stepwise from: 0 V, to 2 V, 5 V, 7 V, 10 V, 12 V, 15 V, 20 V, 30 V, 40 V, and 50 V. At each ΔCV setting mass spectra were accumulated for 2 min and scans were combined using the MassLynx Software version 4.1 (Waters MS Technologies, Wilmslow, UK). Two measurement series were recorded. Mass spectrometry data have been deposited at the ProteomeXchange Consortium’s PRIDE repository[62] with the dataset identifier PXD064233.
From each mass spectrum one list with mass/intensity pair data was copied into a text file and then imported into the OriginPro 2017G software (64 bit) (OriginLab Corporation, Northampton, MA, USA) where it was further processed to eliminate baseline and noise signals. Then, the processed mass list data were converted to a Microsoft Access 2010 database from which data of pre-defined target masses were extracted with a threshold of ± 0.5 Da. Target masses were selected to represent the most characteristic ion signals in the respective mass spectrum: educts were represented by the trimer’s 5 + ion signal and products by the dimer’s 3 + ion signal and the monomer’s 2 + ion signal. […] Ion signal intensities were normalized by setting the sum of all remaining target mass ion signals to 100%. […]

Data set [2] is described as follows: Travelling wave ion mobility CCS calibration: drift times and TWCCSN2 of calibrant protein ions. It counts as physicochemical. The note with it: drift gas nitrogen, repeat determinations printed as separate rows; for dt exp.: in ms; for TWCCSN2: in Å2. An excerpt:
Supplement 41598_2025_28101_MOESM1_ESM.docx, table 25: Table S18: Drift times, experimentally determined CCS, and literature references of calibrant proteins. | column: CCS determinations ^a); CCS from literature ^a)

For data set [3] the following is noted: drift gas nitrogen, in Å2, cited from earlier work. An excerpt:
Supplement 41598_2025_28101_MOESM1_ESM.docx, table 25: Table S18: Drift times, experimentally determined CCS, and literature references of calibrant proteins. | column: CCS from literature ^a)

The mark [4] stands for this setting: Boltzmann curve parameter, 5+ trimer ion, mean of two measurement series, Table S8.
Where [5] appears, read: collision cell voltage difference at half dissociation of 5+ trimer ion, Boltzmann fit.
Setting [6] is: calibrant ion z = 5, ion at m/z 2473.12.
The mark [7] stands for this setting: calibrant ion z = 5, ion at m/z 2473.14.

Values joined by “and” are separate entries in the source; they are usually repeats but may differ in a detail not shown here. Equal values may be shown once. Read-outs that look alike come from different tables or passages of the source.

“H-Dip^2IPEAPRDala^10QAYVRKphe^17GEWVLLSTFL-NH2 [foldon 6, T4Ff variant without Gly1, Dip at position 2]”: in data set [1], the “TWCCSN2 exp. (mean)” value is 1177 Å^2, the “dt (mean)” value stood at 11.3 ms and the FWHM was determined as 1.5 ms. Also, in the data set on foldon homo-trimer (setting [4]), the ΔCV50 is listed as 13.42. The ΔCV50 in the data set with foldon homo-trimer (setting [5]) is listed as 13.4 V. Also, in the data set with foldon homo-trimer (5+ trimer ion), the “k#m0g (apparent kinetic constant of trimer dissociation)” value was 3.47 × 10^8, the “TambΔS#m0g” value worked out at 10.1 kcal/mol, the “ΔG#m0g (pseudo thermodynamic activation free energy of trimer dissociation)” value is 5.88 kcal/mol and the “ΔH#m0g (activation enthalpy of trimer dissociation)” value was 16 kcal/mol.
Take “H-Gly^1Tyr^2IPEAPRDGly^10QAYVRKAsp^17GEWVLLSTFL-OH [foldon 0, original T4 Fibritin foldon mini-protein of 27 amino acids, purchased, forms homo-trimers, reference compound]”: in data set [1], the “TWCCSN2 exp. (mean)” value is on record as 1160 Å^2, the “dt (mean)” value was determined as 10.8 ms and the FWHM is 1.9 ms. Besides, in the data set on foldon homo-trimer (setting [4]), the ΔCV50 is 13.51. Besides, in the data set with foldon homo-trimer (setting [5]), the ΔCV50 is on record as 13.5 V. Besides, in the data set on foldon homo-trimer (5+ trimer ion), the “k#m0g (apparent kinetic constant of trimer dissociation)” value was 3.61 × 10^8, the “TambΔS#m0g” value was 9.56 kcal/mol, the “ΔG#m0g (pseudo thermodynamic activation free energy of trimer dissociation)” value was 5.71 kcal/mol and the “ΔH#m0g (activation enthalpy of trimer dissociation)” value was 15.3 kcal/mol.
As to “H-Gly^1Tyr^2IPEAPRDala^10QAYVRKphe^17GEWVLLSTFL-NH2 [foldon 1, T4Ff variant with D-Ala10, D-Phe17 and C-terminal carboxamide]”, in data set [1], the “TWCCSN2 exp. (mean)” value came out at 1172 Å^2, the “dt (mean)” value is on record as 11.1 ms and the FWHM is 1.5 ms. This substance also gave a ΔCV50 in the data set with foldon homo-trimer (setting [4]) of 11.04. For the same substance, in the data set with foldon homo-trimer (setting [5]), the ΔCV50 was determined as 11.0 V. Also, in the data set on foldon homo-trimer (5+ trimer ion), the “k#m0g (apparent kinetic constant of trimer dissociation)” value was 6.61 × 10^9, the “TambΔS#m0g” value amounted to 8.44 kcal/mol, the “ΔG#m0g (pseudo thermodynamic activation free energy of trimer dissociation)” value is 3.94 kcal/mol and the “ΔH#m0g (activation enthalpy of trimer dissociation)” value is 12.4 kcal/mol.
With “H-Gly^1tyr^2IPEAPRDala^10QAYVRKphe^17GEWVLLSTFL-NH2 [foldon 2]”, in data set [1], the “TWCCSN2 exp. (mean)” value is recorded as 1169 Å^2, the “dt (mean)” value is listed as 11.0 ms and the FWHM is 1.5 ms. In the data set with foldon homo-trimer (5+ trimer ion), the “k#m0g (apparent kinetic constant of trimer dissociation)” value was 3.60 × 10^9, the “TambΔS#m0g” value came to 9.03 kcal/mol, the “ΔG#m0g (pseudo thermodynamic activation free energy of trimer dissociation)” value was 4.42 kcal/mol and the “ΔH#m0g (activation enthalpy of trimer dissociation)” value is 13.5 kcal/mol.
Turning to “H-Nal^2IPEAPRDala^10QAYVRKphe^17GEWVLLSTFL-NH2 [foldon 5, T4Ff variant without Gly1, Nal at position 2]”, in data set [1], the “TWCCSN2 exp. (mean)” value is reported as 1169 Å^2, the “dt (mean)” value came to 11.0 ms and the FWHM stood at 0.8 ms. In the data set with foldon homo-trimer (setting [4]), this substance gave a ΔCV50 of 12.25. Moreover, in the data set with foldon homo-trimer (5+ trimer ion), the “k#m0g (apparent kinetic constant of trimer dissociation)” value is recorded as 1.22 × 10^9, the “TambΔS#m0g” value stood at 9.56 kcal/mol, the “ΔG#m0g (pseudo thermodynamic activation free energy of trimer dissociation)” value is 5.04 kcal/mol and the “ΔH#m0g (activation enthalpy of trimer dissociation)” value was 14.6 kcal/mol.
As to “H-Tyr^2IPEAPRDala^10QAYVRKphe^17GEWVLLSTFL-NH2 [foldon 3]”, in data set [1], the “TWCCSN2 exp. (mean)” value is 1164 Å^2, the “dt (mean)” value worked out at 10.9 ms and the FWHM turned out to be 1.2 ms. Besides, the ΔCV50 in the data set with foldon homo-trimer (setting [4]) is listed as 11.63. In the data set on foldon homo-trimer (5+ trimer ion), the “k#m0g (apparent kinetic constant of trimer dissociation)” value is 2.64 × 10^9, the “TambΔS#m0g” value came out at 8.99 kcal/mol, the “ΔG#m0g (pseudo thermodynamic activation free energy of trimer dissociation)” value was 4.57 kcal/mol and the “ΔH#m0g (activation enthalpy of trimer dissociation)” value was 13.6 kcal/mol.
Regarding “H-tyr^2IPEAPRDala^10QAYVRKphe^17GEWVLLSTFL-NH2 [foldon 4, T4Ff variant without Gly1, D-Tyr at position 2]”, in data set [1], the “TWCCSN2 exp. (mean)” value came to 1164 Å^2, the “dt (mean)” value was 10.9 ms and the FWHM is 1.6 ms. This substance also displayed a ΔCV50 in the data set on foldon homo-trimer (setting [4]) of 12.26. In addition, in the data set with foldon homo-trimer (5+ trimer ion), the “k#m0g (apparent kinetic constant of trimer dissociation)” value is 1.17 × 10^9, the “TambΔS#m0g” value turned out to be 9.27 kcal/mol, the “ΔG#m0g (pseudo thermodynamic activation free energy of trimer dissociation)” value was 5.07 kcal/mol and the “ΔH#m0g (activation enthalpy of trimer dissociation)” value is 14.3 kcal/mol.
Consider cytochrome c, for which the dt exp. in data set [2] (setting [6]) was 12.03; in data set [2] (setting [7]), 11.89; in data set [2] (calibrant ion z = 8) it was 10.23 and 10.37. The TWCCSN2 in data set [2] (setting [6]) was 1204; in data set [2] (setting [7]), 1199; in data set [2] (calibrant ion z = 8), 1827 and 1835. Further, the “CCS from literature, CCS exp.” value in data set [3] (calibrant ion z = 5) is 1146; in data set [3] (calibrant ion z = 6, two literature values), 1477 and 1490; in data set [3] (calibrant ion z = 7), 1590.
In the case of insulin, the dt exp. was 12.3 and 12.44 in data set [2] (calibrant ion z = 3); 8.43 and 8.57 in data set [2] (calibrant ion z = 4); 7.19 in data set [2] (calibrant ion z = 5). For the same substance, the TWCCSN2 in data set [2] (calibrant ion z = 3) is 729 and 732; in data set [2] (calibrant ion z = 4) it was 865 and 868; in data set [2] (calibrant ion z = 5), 1038.
